Among the data in paper PMC5108454 (Cell metabolism, 2016) are Ki and Km values, retold here.

Assay [1] addresses T1, Sdh (succinate dehydrogenase; complex II) (Mus musculus, UniProt Q8K2B3). The assay can be described thus: complex II enzyme activity microplate assay, Dixon plot. The class given is biochemical.
Assay [2] concerns the target T1, Sdh (succinate dehydrogenase; complex II). In words: complex II enzyme activity microplate assay, Lineweaver-Burk plot. The format is biochemical. The settings on record: sodium succinate hexahydrate varied in activity buffer with phospholipid mixture.

The Ki is a dissociation constant, usually derived from enzyme kinetics or from competition with a known ligand. High values mean lower affinity, low ones higher affinity. The Km is the concentration of substrate that gives half-maximal velocity.

T1 sequence (Q8K2B3 43-664): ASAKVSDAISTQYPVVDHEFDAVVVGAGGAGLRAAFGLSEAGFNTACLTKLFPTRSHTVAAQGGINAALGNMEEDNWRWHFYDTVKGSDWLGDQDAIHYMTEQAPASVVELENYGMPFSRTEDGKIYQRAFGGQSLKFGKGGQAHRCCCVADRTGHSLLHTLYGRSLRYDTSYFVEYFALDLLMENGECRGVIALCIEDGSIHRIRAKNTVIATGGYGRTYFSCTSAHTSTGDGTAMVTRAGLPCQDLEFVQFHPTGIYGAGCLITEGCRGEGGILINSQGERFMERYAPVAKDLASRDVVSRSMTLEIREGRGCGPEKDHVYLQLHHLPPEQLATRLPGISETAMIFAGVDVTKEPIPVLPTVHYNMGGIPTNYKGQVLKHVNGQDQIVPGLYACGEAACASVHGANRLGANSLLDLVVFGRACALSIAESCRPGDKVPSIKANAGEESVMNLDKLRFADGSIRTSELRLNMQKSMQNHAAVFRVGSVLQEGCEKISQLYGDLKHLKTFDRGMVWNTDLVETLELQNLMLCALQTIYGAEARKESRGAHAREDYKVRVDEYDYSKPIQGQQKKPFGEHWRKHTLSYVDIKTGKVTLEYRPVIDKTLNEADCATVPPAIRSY
T1 sequence (Q9CQA3 31-282 partner): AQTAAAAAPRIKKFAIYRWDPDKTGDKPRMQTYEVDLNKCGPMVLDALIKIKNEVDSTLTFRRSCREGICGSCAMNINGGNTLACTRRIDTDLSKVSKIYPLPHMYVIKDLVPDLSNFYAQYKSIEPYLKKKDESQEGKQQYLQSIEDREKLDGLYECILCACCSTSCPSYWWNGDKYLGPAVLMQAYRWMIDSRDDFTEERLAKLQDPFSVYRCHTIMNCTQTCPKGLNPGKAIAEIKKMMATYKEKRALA
T1 sequence (Q9CZB0 30-169 partner): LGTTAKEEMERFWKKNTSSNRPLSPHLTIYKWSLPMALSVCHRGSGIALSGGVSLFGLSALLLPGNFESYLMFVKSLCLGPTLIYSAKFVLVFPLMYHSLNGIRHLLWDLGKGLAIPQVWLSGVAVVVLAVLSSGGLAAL
T1 sequence (Q9CXV1 57-159 partner): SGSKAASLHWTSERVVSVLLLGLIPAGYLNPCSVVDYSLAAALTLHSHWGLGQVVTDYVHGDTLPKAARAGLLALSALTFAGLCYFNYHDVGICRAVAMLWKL

In turn, `C=C(CC(=O)O)C(=O)O` [itaconate] showed an inhibition constant (Ki) in assay [1] of 220 µM.
Regarding `O=C(O)CCC(=O)O` [succinate], the Michaelis constant (Km) in assay [2] was found to be 290 ± 800 µM.
